Experimental data as given in ChEMBL document CHEMBL4507302, “Data for DCP probe TP-020” (2021).

Legend:
[1] = molecular target: Sodium-dependent serotonin transporter (Homo sapiens) (UniProt P31645); conditions: Compound concentration 10.0 uM
[2] = molecular target: Mitogen-activated protein kinase kinase kinase 19 (Homo sapiens) (UniProt Q56UN5); conditions: Compound concentration 1000.0 nM
[3] = molecular target: Serine/threonine-protein kinase MRCK alpha (Homo sapiens) (UniProt Q5VT25); conditions: Compound concentration 1000.0 nM
[4] = molecular target: Phosphatidylinositol 3-kinase catalytic subunit type 3 (Homo sapiens) (UniProt Q8NEB9); conditions: Compound concentration 1000.0 nM
[5] = molecular target: Mitogen-activated protein kinase kinase kinase 5 (Homo sapiens) (UniProt Q99683); conditions: Compound concentration 1000.0 nM
[6] = molecular target: 1-phosphatidylinositol 3-phosphate 5-kinase (Homo sapiens) (UniProt Q9Y2I7); conditions: Compound concentration 1000.0 nM
[7] = molecular target: Ribosomal protein S6 kinase alpha-4 (Homo sapiens) (UniProt O75676); conditions: Compound concentration 1000.0 nM
[8] = tested on: Epidermal growth factor receptor (Homo sapiens), P00533 [UNDEFINED MUTATION]; conditions: Compound concentration 1000.0 nM
[9] = molecular target: MAP/microtubule affinity-regulating kinase 4 (Homo sapiens) (UniProt Q96L34); conditions: Compound concentration 1000.0 nM
[10] = molecular target: Interleukin-1 receptor-associated kinase 4 (Homo sapiens) (UniProt Q9NWZ3); conditions: Compound concentration 1000.0 nM
[11] = molecular target: D(1B) dopamine receptor (Homo sapiens) (UniProt P21918); conditions: Compound concentration 10.0 uM
[12] = molecular target: Serine/threonine-protein kinase DCLK3 (Homo sapiens) (UniProt Q9C098); conditions: Compound concentration 1000.0 nM
[13] = molecular target: Aurora kinase B (Homo sapiens) (UniProt Q96GD4); conditions: Compound concentration 1000.0 nM
[14] = molecular target: Receptor tyrosine-protein kinase erbB-2 (Homo sapiens) (UniProt P04626); conditions: Compound concentration 1000.0 nM
[15] = molecular target: Cyclin-dependent kinase 2 homolog (Plasmodium falciparum (isolate 3D7)) (UniProt P61075); conditions: Compound concentration 1000.0 nM
[16] = molecular target: Serine/threonine-protein kinase PknB (Mycobacterium tuberculosis) (UniProt P9WI81); conditions: Compound concentration 1000.0 nM
[17] = molecular target: Tyrosine-protein kinase ABL1 (Homo sapiens) (UniProt P00519); conditions: Compound concentration 1000.0 nM
[18] = molecular target: Inhibitor of nuclear factor kappa-B kinase subunit alpha (Homo sapiens) (UniProt O15111); conditions: Compound concentration 1000.0 nM
[19] = molecular target: AP2-associated protein kinase 1 (Homo sapiens) (UniProt Q2M2I8); conditions: Compound concentration 1000.0 nM
[20] = tested on: Receptor-type tyrosine-protein kinase FLT3 (Homo sapiens), P36888 [K663Q]; conditions: Compound concentration 1000.0 nM
[21] = molecular target: Myosin light chain kinase family member 4 (Homo sapiens) (UniProt Q86YV6); conditions: Compound concentration 1000.0 nM
[22] = molecular target: Serine/threonine-protein kinase PAK 2 (Homo sapiens) (UniProt Q13177); conditions: Compound concentration 1000.0 nM
[23] = tested on: Receptor-type tyrosine-protein kinase FLT3 (Homo sapiens), P36888 [UNDEFINED MUTATION]; conditions: Compound concentration 1000.0 nM
[24] = molecular target: Proto-oncogene tyrosine-protein kinase Src (Homo sapiens) (UniProt P12931); conditions: Compound concentration 1000.0 nM
[25] = molecular target: Serine/threonine-protein kinase MARK2 (Homo sapiens) (UniProt Q7KZI7); conditions: Compound concentration 1000.0 nM
[26] = molecular target: Hormonally up-regulated neu tumor-associated kinase (Homo sapiens) (UniProt P57058); conditions: Compound concentration 1000.0 nM
[27] = tested on: ALK tyrosine kinase receptor (Homo sapiens), Q9UM73 [C1156Y]; conditions: Compound concentration 1000.0 nM
[28] = molecular target: Cyclin-dependent kinase 15 (Homo sapiens) (UniProt Q96Q40); conditions: Compound concentration 1000.0 nM
[29] = molecular target: Serine/threonine-protein kinase PLK3 (Homo sapiens) (UniProt Q9H4B4); conditions: Compound concentration 1000.0 nM
[30] = molecular target: Interferon-induced, double-stranded RNA-activated protein kinase (Homo sapiens) (UniProt P19525); conditions: Compound concentration 1000.0 nM
[31] = molecular target: Uncharacterized serine/threonine-protein kinase SBK3 (Homo sapiens) (UniProt P0C264); conditions: Compound concentration 1000.0 nM
[32] = molecular target: Inhibitor of nuclear factor kappa-B kinase subunit epsilon (Homo sapiens) (UniProt Q14164); conditions: Compound concentration 1000.0 nM
[33] = molecular target: Homeodomain-interacting protein kinase 2 (Homo sapiens) (UniProt Q9H2X6); conditions: Compound concentration 1000.0 nM
[34] = molecular target: Misshapen-like kinase 1 (Homo sapiens) (UniProt Q8N4C8); conditions: Compound concentration 1000.0 nM
[35] = tested on: Phosphatidylinositol 4,5-bisphosphate 3-kinase catalytic subunit alpha isoform (Homo sapiens), P42336 [E545A]; conditions: Compound concentration 1000.0 nM
[36] = molecular target: D(3) dopamine receptor (Homo sapiens) (UniProt P35462); conditions: Compound concentration 10.0 uM
[37] = molecular target: Cytoplasmic tyrosine-protein kinase BMX (Homo sapiens) (UniProt P51813); conditions: Compound concentration 1000.0 nM
[38] = molecular target: Calcium/calmodulin-dependent protein kinase kinase 1 (Homo sapiens) (UniProt Q8N5S9); conditions: Compound concentration 1000.0 nM
[39] = molecular target: Serine/threonine-protein kinase Nek10 (Homo sapiens) (UniProt Q6ZWH5); conditions: Compound concentration 1000.0 nM
[40] = molecular target: Activin receptor type-1B (Homo sapiens) (UniProt P36896); conditions: Compound concentration 1000.0 nM
[41] = molecular target: Serine/threonine-protein kinase TAO3 (Homo sapiens) (UniProt Q9H2K8); conditions: Compound concentration 1000.0 nM
[42] = molecular target: Fibroblast growth factor receptor 3 (Homo sapiens) (UniProt P22607); conditions: Compound concentration 1000.0 nM
[43] = molecular target: Dual specificity protein kinase CLK4 (Homo sapiens) (UniProt Q9HAZ1); conditions: Compound concentration 1000.0 nM
[44] = molecular target: Serine/threonine-protein kinase/endoribonuclease IRE1 (Homo sapiens) (UniProt O75460); conditions: Compound concentration 1000.0 nM
Chain of Serine/threonine-protein kinase/endoribonuclease IRE1 (Homo sapiens) (O75460 19-977 limits assumed): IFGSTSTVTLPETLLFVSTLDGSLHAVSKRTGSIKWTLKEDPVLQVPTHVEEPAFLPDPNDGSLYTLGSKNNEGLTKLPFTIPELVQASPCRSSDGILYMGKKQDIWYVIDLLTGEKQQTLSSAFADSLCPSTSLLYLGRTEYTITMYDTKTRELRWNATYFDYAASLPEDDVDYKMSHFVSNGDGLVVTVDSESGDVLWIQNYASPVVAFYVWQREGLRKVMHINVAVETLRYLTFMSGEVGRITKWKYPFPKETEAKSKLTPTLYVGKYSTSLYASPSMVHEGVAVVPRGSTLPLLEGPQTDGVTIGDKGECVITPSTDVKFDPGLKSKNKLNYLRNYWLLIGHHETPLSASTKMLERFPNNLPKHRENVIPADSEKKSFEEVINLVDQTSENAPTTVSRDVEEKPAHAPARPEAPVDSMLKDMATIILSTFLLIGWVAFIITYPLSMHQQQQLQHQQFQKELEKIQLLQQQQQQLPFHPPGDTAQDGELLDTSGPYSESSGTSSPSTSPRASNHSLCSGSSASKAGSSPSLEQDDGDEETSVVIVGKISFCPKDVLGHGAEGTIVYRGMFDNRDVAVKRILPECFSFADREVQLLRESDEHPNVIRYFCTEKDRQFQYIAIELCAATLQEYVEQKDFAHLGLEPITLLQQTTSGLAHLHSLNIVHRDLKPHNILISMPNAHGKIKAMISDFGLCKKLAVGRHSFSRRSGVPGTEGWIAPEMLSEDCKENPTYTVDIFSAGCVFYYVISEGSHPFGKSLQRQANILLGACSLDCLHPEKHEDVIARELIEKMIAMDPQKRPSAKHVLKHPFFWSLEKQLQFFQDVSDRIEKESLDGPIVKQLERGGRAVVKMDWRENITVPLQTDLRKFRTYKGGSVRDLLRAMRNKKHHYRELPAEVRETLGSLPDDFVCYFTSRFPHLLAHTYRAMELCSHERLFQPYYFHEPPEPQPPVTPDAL

Chain of Hormonally up-regulated neu tumor-associated kinase (Homo sapiens) (P57058 whole entry): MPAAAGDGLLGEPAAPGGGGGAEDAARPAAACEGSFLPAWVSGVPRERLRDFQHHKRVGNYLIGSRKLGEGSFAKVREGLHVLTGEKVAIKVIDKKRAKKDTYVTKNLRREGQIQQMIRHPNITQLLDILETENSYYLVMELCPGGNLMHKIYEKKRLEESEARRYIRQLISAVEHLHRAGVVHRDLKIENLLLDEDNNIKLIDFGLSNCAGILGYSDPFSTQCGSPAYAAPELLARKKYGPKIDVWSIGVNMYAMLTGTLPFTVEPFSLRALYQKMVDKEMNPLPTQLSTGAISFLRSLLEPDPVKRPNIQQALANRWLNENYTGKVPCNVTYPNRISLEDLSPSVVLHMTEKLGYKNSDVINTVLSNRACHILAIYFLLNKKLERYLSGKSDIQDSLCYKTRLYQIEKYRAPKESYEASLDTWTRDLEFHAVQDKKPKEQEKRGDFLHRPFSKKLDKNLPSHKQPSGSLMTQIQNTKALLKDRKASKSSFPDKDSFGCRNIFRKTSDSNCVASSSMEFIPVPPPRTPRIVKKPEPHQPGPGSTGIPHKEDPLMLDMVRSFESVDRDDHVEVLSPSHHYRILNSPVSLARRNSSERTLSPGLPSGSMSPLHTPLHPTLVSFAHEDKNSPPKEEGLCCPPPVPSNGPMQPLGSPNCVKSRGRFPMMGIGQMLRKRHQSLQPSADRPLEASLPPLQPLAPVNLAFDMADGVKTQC
Chain of Homeodomain-interacting protein kinase 2 (Homo sapiens) (Q9H2X6 whole entry, looked up): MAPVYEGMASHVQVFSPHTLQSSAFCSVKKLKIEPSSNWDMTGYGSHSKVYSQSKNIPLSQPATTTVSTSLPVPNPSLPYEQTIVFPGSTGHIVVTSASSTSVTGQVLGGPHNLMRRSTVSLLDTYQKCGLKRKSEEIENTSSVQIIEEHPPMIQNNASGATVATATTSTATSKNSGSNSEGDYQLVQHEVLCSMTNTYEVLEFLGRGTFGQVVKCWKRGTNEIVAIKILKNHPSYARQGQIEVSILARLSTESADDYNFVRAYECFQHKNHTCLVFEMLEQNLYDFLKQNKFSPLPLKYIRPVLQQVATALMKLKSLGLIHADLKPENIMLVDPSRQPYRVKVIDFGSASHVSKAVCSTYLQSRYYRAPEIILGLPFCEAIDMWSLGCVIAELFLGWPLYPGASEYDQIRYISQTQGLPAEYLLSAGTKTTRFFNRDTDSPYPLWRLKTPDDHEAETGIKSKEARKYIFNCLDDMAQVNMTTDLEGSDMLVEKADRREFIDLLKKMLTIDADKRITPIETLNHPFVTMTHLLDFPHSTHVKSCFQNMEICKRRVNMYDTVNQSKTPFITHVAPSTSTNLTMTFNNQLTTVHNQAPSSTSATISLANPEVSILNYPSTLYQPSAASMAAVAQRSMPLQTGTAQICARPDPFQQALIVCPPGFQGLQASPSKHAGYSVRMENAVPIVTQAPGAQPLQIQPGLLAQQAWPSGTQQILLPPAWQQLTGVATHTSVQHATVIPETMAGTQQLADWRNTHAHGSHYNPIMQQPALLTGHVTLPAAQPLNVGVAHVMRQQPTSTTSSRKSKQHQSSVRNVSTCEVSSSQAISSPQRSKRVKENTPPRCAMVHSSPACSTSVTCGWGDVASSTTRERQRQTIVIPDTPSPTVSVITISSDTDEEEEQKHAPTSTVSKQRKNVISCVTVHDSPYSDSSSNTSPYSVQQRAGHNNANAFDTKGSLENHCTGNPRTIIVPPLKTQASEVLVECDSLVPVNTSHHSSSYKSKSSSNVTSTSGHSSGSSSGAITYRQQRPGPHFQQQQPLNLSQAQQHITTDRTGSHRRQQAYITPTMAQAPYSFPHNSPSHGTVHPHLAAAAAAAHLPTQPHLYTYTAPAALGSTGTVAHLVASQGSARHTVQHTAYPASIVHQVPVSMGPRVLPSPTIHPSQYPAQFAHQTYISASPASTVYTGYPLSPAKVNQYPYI
Chain of Cyclin-dependent kinase 15 (Homo sapiens) (Q96Q40 whole entry): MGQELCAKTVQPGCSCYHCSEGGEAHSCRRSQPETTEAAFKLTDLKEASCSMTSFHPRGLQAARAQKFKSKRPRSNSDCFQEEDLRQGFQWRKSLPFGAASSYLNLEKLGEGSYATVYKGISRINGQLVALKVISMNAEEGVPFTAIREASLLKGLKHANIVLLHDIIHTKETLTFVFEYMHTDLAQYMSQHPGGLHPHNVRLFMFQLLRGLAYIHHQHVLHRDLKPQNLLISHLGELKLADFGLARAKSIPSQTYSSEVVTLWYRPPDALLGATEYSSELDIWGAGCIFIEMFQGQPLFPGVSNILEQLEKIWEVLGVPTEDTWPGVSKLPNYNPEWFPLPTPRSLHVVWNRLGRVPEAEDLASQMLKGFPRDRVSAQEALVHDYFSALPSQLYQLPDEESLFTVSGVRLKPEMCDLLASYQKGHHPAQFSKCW
Chain of Interferon-induced, double-stranded RNA-activated protein kinase (Homo sapiens) (P19525 whole entry): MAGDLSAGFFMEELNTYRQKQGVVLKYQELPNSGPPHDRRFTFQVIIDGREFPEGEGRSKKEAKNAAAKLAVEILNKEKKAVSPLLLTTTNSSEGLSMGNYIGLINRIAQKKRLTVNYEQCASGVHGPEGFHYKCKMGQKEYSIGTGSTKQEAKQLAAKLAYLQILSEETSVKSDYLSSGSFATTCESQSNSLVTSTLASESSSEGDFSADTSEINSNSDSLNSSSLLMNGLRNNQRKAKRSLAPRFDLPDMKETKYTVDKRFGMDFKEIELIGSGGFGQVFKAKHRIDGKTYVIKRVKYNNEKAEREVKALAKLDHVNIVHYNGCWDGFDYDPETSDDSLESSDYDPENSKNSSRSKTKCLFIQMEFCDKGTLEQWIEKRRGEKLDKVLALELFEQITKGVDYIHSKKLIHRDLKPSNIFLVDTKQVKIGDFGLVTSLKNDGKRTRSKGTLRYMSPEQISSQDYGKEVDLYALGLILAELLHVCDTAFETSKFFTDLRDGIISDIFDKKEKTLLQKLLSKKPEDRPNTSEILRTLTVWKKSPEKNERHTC
Chain of Phosphatidylinositol 3-kinase catalytic subunit type 3 (Homo sapiens) (Q8NEB9 whole entry): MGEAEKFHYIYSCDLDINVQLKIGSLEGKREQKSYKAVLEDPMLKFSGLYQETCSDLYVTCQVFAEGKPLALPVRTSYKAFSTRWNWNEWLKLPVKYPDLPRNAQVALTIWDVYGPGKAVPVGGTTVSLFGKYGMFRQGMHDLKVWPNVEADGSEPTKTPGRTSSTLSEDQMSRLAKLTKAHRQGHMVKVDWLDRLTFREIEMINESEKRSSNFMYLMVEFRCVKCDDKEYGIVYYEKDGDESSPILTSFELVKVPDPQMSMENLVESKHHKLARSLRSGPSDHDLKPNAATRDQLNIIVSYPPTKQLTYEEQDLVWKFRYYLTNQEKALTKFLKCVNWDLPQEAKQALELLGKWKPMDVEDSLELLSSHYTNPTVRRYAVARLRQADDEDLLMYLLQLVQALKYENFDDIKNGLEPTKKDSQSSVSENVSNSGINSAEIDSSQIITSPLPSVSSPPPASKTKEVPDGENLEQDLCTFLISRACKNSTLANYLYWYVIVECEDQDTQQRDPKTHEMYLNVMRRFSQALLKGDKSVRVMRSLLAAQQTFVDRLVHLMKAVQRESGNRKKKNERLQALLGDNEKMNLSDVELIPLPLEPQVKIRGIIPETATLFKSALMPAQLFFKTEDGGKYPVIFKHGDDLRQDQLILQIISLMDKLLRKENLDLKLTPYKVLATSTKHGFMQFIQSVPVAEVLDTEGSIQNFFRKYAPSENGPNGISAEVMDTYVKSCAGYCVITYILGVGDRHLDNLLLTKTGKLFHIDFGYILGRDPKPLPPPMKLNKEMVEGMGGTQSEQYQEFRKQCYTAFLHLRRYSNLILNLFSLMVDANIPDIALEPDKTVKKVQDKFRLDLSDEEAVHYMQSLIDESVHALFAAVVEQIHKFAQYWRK
Chain of Cyclin-dependent kinase 2 homolog (Plasmodium falciparum (isolate 3D7)) (P61075 whole entry): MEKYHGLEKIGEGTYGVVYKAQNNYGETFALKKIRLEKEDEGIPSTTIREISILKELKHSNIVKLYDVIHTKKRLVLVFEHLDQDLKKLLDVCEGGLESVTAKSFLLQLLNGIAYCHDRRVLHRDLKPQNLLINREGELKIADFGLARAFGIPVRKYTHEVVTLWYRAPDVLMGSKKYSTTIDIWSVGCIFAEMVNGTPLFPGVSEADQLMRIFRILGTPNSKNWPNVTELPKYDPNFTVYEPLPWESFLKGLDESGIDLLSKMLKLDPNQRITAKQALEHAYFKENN

Nc1cnc(N2CCc3cc(S(=O)(=O)Nc4c(F)cc(Cl)cc4F)cc(N4CCCC4=O)c32)nc1
active: residual activity [30] 41%
inactive: inhibition [1] 9.34% | residual activity [2] 100% | residual activity [3] 100% | residual activity [4] 100% | residual activity [5] 83% | residual activity [6] 100% | residual activity [7] 100% | residual activity [8] 74% | residual activity [9] 79% | residual activity [10] 100% | inhibition [11] 7.88% | residual activity [12] 85% | residual activity [13] 98% | residual activity [14] 100% | residual activity [15] 100% | residual activity [16] 96% | residual activity [17] 100% | residual activity [18] 100% | residual activity [19] 100% | residual activity [20] 97% | residual activity [21] 100% | residual activity [22] 78% | residual activity [23] 96% | residual activity [24] 99% | residual activity [25] 74% | residual activity [26] 99% | residual activity [27] 100% | residual activity [28] 80% | residual activity [29] 100% | residual activity [31] 100% | residual activity [32] 95% | residual activity [33] 100% | residual activity [34] 100% | residual activity [35] 100% | inhibition [36] 7.41% | residual activity [37] 100% | residual activity [38] 100% | residual activity [39] 100% | residual activity [40] 96% | residual activity [41] 70% | residual activity [42] 100% | residual activity [43] 89% | residual activity [44] 100%

Cn1nc(C(F)(F)F)cc1-c1cnc(N2CCc3cc(S(=O)(=O)Nc4c(F)cc(Cl)cc4F)cc(N4CCCC4=O)c32)nc1 [TP-020]
active: residual activity [23] 32%
inactive: inhibition [1] 0.95% | residual activity [2] 82% | residual activity [3] 100% | residual activity [4] 78% | residual activity [5] 100% | residual activity [6] 88% | residual activity [7] 82% | residual activity [8] 100% | residual activity [9] 88% | residual activity [10] 82% | inhibition [11] 42.5% | residual activity [12] 86% | residual activity [13] 86% | residual activity [14] 79% | residual activity [15] 73% | residual activity [16] 100% | residual activity [17] 73% | residual activity [18] 99% | residual activity [19] 100% | residual activity [20] 100% | residual activity [21] 99% | residual activity [22] 100% | residual activity [24] 100% | residual activity [25] 100% | residual activity [26] 68% | residual activity [27] 72% | residual activity [28] 100% | residual activity [29] 79% | residual activity [30] 100% | residual activity [31] 79% | residual activity [32] 94% | residual activity [33] 74% | residual activity [34] 99% | residual activity [35] 84% | inhibition [36] 2.14% | residual activity [37] 81% | residual activity [38] 98% | residual activity [39] 80% | residual activity [40] 96% | residual activity [41] 93% | residual activity [42] 100% | residual activity [43] 90% | residual activity [44] 92%
